For orientation: melting point means the temperature of the solid-liquid transition.

Series [1] deals with C57bl/6 obese (ob/ob) mice. The experiment in a line: Obese Mice, Oral Glucose Tolerance Test. The following applies: 8 days on diet, oral glucose load 3 g/kg, vs control groups; for inhibition in vivo at 30 µmol/kg: level in diet 30 μmol kg^-1 of diet; for inhibition in vivo at 300 µmol/kg: level in diet 300 μmol kg^-1 of diet; for inhibition in vivo at 100 µmol/kg: level in diet 100 μmol kg^-1 of diet. It counts as in vivo. Here is the method:
Obese Mice, Oral Glucose Tolerance Test
C57bl/6 obese (ob/ob) mice were fed on powdered oxoid diet. After at least one week, the mice continued on a powdered oxoid diet or were fed powdered oxoid diet containing the test compound. After 8 days on the supplemented diet all of the mice were fasted for 5 hours prior to receiving an oral load of glucose (3 g/kg). Blood samples for glucose analysis were taken 0, 45, 90 and 135 minutes after glucose administration and the results appear below as the percentage reduction in area under the blood glucose curve where test compound treated groups are compared with the control groups. 7 mice were used for each treatment.

Series [2] deals with spontaneously hypertensive rats. The experiment in a line: Anti-Hypertensive Activity, blood pressure in spontaneously hypertensive rats. It counts as in vivo. As for the experimental part:
Anti-Hypertensive Activity
Eight month old female, spontaneously hypertensive rats were given test compound once each day for 15 days. Prior to the experiment and on days 8 and 15, the rats were fasted overnight from 5.00 pm and blood pressure was recorded the following morning, immediately prior to dosing and again 2 h later. Food was returned after the 2 h blood pressure reading.
The results below were obtained using the compound of Example 3 as the test compound.

Setting [3] is: Mus musculus, 192 h, read-out: % REDUCTION IN AREA UNDER BLOOD GLUCOSE CURVE.

With `O=C1NC(=O)/C(=C/c2ccc(OCCNc3ncccn3)cc2)S1` [Example 24, 5-[4-(2-(2-Pyrimidinylamino)ethoxy)benzylidene]-2,4-thiazolidinedione], the melting point worked out at 234 °C. Moreover, the inhibition in vivo at 30 µmol/kg in series [1] (setting [3]) was determined as 15%.

`CN(CCCOc1ccc(/C=C2\SC(=O)NC2=O)cc1)c1nc2ccccc2o1` [Example 29, 5-(4-[3-(N-Methyl-N-(2-benzoxazolyl)amino)propoxy]benzylidene)-2,4-thiazolidinedione] displayed a melting point of 202 to 204 °C. Moreover, in series [1] (setting [3]), the inhibition in vivo at 300 µmol/kg worked out at 32%.

For the compound `CN(CCOc1ccc(/C=C2\SC(=O)NC2=O)cc1)c1nc2ccccc2o1` [Example 4, 5-(4-[2-(N-Methyl-N-(2-benzoxazolyl)amino)ethoxy]benzylidene)-2,4-thiazolidinedione], in series [1] (setting [3]), the inhibition in vivo at 300 µmol/kg stood at 30%.

As to `CN(CCOc1ccc(/C=C2\SC(=O)NC2=O)cc1)c1nc2ccccc2s1` [Example 2, 5-(4-[2-(N-Methyl-N-(2-benzothiazolyl)amino)ethoxy]benzylidene)-2,4-thiazolidinedione], the inhibition in vivo at 300 µmol/kg in series [1] (setting [3]) came out at 30%.

`CN(CCOc1ccc(CC2SC(=O)NC2=O)cc1)c1ncccn1` (centres unmarked) [Example 5, 5-(4-[2-(N-Methyl-N-(2-pyrimidinyl)amino)ethoxy]benzyl)-2,4-thiazolidinedione]: in series [1] (setting [3]), the inhibition in vivo at 100 µmol/kg worked out at 40%.

As for `CN(CCOc1ccc(CC2SC(=O)NC2=O)cc1)c1nc(-c2ccccc2)cs1` (centres unmarked) [Example 11, 5-[4-(2-(N-Methyl-N-(2-(4-phenylthiazolyl))amino)ethoxy)benzyl]-2,4-thiazolidinedione], the melting point is 62 to 65 °C. Moreover, the inhibition in vivo at 100 µmol/kg in series [1] (setting [3]) came to 34%.

In the case of `CC(C)N(CCOc1ccc(CC2SC(=O)NC2=O)cc1)c1nc2ccccc2o1` (centres unmarked) [Example 36, 5-(4-[2-(N-Isopropyl-N-(2-benzoxazolyl)amino)ethoxy]benzyl)-2,4-thiazolidinedione], the inhibition in vivo at 100 µmol/kg in series [1] (setting [3]) is 20%.

Regarding `Cc1nc(N(C)CCOc2ccc(CC3SC(=O)NC3=O)cc2)sc1-c1ccccc1` (centres unmarked) [Example 15, 5-(4-[2-(N-Methyl-N-[2-(4-methyl-5-phenylthiazolyl)]amino)ethoxy]benzyl)-2,4-thiazolidinedione], the melting point came to 174 °C. In series [1] (setting [3]), the inhibition in vivo at 100 µmol/kg was 39%.

With `Cc1sc(N(C)CCOc2ccc(CC3SC(=O)NC3=O)cc2)nc1-c1ccccc1` (centres unmarked) [Example 13, 5-(4-[2-(N-Methyl-N-[2-(4-phenyl-5-methylthiazolyl)]amino)ethoxy]benzyl)-2,4-thiazolidinedione], the melting point was 60 to 62 °C. Besides, the inhibition in vivo at 100 µmol/kg in series [1] (setting [3]) turned out to be 37%.

Take `Cc1csc(N(C)CCOc2ccc(CC3SC(=O)NC3=O)cc2)n1` (centres unmarked) [Example 17, 5-(4-[2-(N-Methyl-N-[2-(4-methylthiazolyl)]amino)ethoxy]benzyl)-2,4-thiazolidinedione]: the inhibition in vivo at 100 µmol/kg in series [1] (setting [3]) worked out at 34%.

Regarding `Cc1nc(N(C)CCOc2ccc(/C=C3\SC(=O)NC3=O)cc2)sc1C` [Example 8, 5-(4-[2-(N-Methyl-N-[2-(4,5-dimethylthiazolyl)]amino)ethoxy]benzylidene)-2,4-thiazolidinedione], the melting point was 175 °C.

`CN(CCOc1ccc(/C=C2\SC(=O)NC2=O)cc1)c1ccccn1` [Example 31, 5-(4-[2-(N-Methyl-N-(2-pyridyl)amino)ethoxy]benzylidene)-2,4-thiazolidinedione] came in with a melting point of 177 to 179 °C.

`CN(CCOc1ccc(CC2SC(=O)NC2=O)cc1)c1nccs1` (centres unmarked) [Example 9, 5-(4-[2-(N-Methyl-N-(2-thiazolyl)amino)ethoxy]benzyl)-2,4-thiazolidinedione] yielded a melting point of 186 °C. In addition, the inhibition in vivo at 100 µmol/kg in series [1] (setting [3]) amounted to 58%.

`O=C1NC(=O)C(Cc2ccc(OCCNc3nc4ccccc4o3)cc2)S1` (centres unmarked) [Example 35, 5-(4-[2-(N-(2-Benzoxazolyl)amino)ethoxy]benzyl)-2,4-thiazolidinedione] had a melting point of 202 to 203 °C. For the same compound, in series [1] (setting [3]), the inhibition in vivo at 100 µmol/kg amounted to 44%.

Regarding `Cc1nc(N(C)CCOc2ccc(CC3SC(=O)NC3=O)cc2)oc1C` (centres unmarked) [Example 21, 5-(4-[2-(N-Methyl-N-[2-(4,5-dimethyloxazolyl)]amino)ethoxy]benzyl)-2,4-thiazolidinedione], the inhibition in vivo at 30 µmol/kg in series [1] (setting [3]) worked out at 33%.

With “5-(4-[2-(N-Methyl-N-(2-benzoxazolyl)amino)ethoxy]benzyl)-2,4-thiazolidinedione hemihydrate [Example 3]”, in series [1] (level in diet 10 μmol kg^-1 of diet), the “% REDUCTION IN AREA UNDER BLOOD GLUCOSE CURVE” value was found to be 39%. Besides, the Blood pressure in series [2] (10 μmole/kg once each day, Day 0 (prior to the experiment), 0 hours) was found to be 210 ± 13 mm Hg; in series [2] (10 μmole/kg once each day, Day 8, 0 hours (immediately prior to dosing)), 191 ± 6 mm Hg; in series [2] (10 μmole/kg once each day, Day 8, 2 hours after dosing) it was 185 ± 12 mm Hg; in series [2] (10 μmole/kg once each day, Day 15, 0 hours (immediately prior to dosing)), 198 ± 17 mm Hg; in series [2] (10 μmole/kg once each day, Day 15, 2 hours after dosing) it was 185 ± 5 mm Hg; in series [2] (30 μmole/kg once each day, Day 0 (prior to the experiment), 0 hours), 210 ± 13 mm Hg. For the same compound, the Blood pressure in series [2] (30 μmole/kg once each day, Day 8, 0 hours (immediately prior to dosing)) is recorded as 181 ± 11 mm Hg; in series [2] (30 μmole/kg once each day, Day 8, 2 hours after dosing) it was 174 ± 15 mm Hg; in series [2] (30 μmole/kg once each day, Day 15, 0 hours (immediately prior to dosing)), 178 ± 18 mm Hg; in series [2] (30 μmole/kg once each day, Day 15, 2 hours after dosing), 170 ± 13 mm Hg.

As for `CN(CCCCOc1ccc(CC2SC(=O)NC2=O)cc1)c1nc2ccccc2o1` (centres unmarked) [Example 33, 5-(4-[4-(N-Methyl-N-(2-benzoxazolyl)amino)butoxy]benzyl)-2,4-thiazolidinedione], the melting point stood at 112 °C. Moreover, the inhibition in vivo at 300 µmol/kg in series [1] (setting [3]) came to 25%.

In turn, `CN(CCOc1ccc(CC2SC(=O)NC2=O)cc1)c1ncc(-c2ccccc2)o1` (centres unmarked) [Example 19, 5-[4-(2-(N-Methyl-N-[2-(5-phenyloxazolyl)]amino)ethoxy)benzyl]-2,4-thiazolidinedione] displayed a melting point of 200 °C. Moreover, the inhibition in vivo at 30 µmol/kg in series [1] (setting [3]) came to 22%.

As for `Cc1nc(N(C)CCOc2ccc(CC3SC(=O)NC3=O)cc2)sc1C` (centres unmarked) [Example 7], the inhibition in vivo at 50 µmol/kg in series [1] (Mus musculus, 192 h, level in diet 50 μmol kg^-1 of diet, read-out: % REDUCTION IN AREA UNDER BLOOD GLUCOSE CURVE) turned out to be 47%.

Regarding `O=C1NC(=O)C(Cc2ccc(OCCN(Cc3ccccc3)c3nc4ccccc4s3)cc2)S1` (centres unmarked) [Example 27, 5-(4-(2-(N-(2-Benzothiazolyl)-N-benzylamino)ethoxy)benzyl)-2,4-thiazolidinedione], the inhibition in vivo at 300 µmol/kg in series [1] (setting [3]) turned out to be 56%.

Regarding `CN(CCOc1ccc(/C=C2\SC(=O)NC2=O)cc1)c1ncc(-c2ccccc2)o1` [Example 20, 5-(4-[2-(N-Methyl-N-[2-(5-phenyloxazolyl)]amino)ethoxy]benzylidene)-2,4-thiazolidinedione], the melting point amounted to 191 °C.

`CN(CCOc1ccc(/C=C2\SC(=O)NC2=O)cc1)c1nc(-c2ccccc2)cs1` [Example 12, 5-(4-[2-(N-Methyl-N-(2-(4-phenylthiazolyl))amino)ethoxy]benzylidene)-2,4-thiazolidinedione]: the melting point turned out to be 134 °C.

On to `CN(CCOc1ccc(CC2SC(=O)NC2=O)cc1)c1nc2ccccc2s1` (centres unmarked) [Example 1, 5-(4-[2-(N-Methyl-N-(2-benzothiazolyl)amino)ethoxy]benzyl)-2,4-thiazolidinedione], for which the inhibition in vivo at 100 µmol/kg in series [1] (setting [3]) stood at 51%.

In turn, `CN(CCCCOc1ccc(/C=C2\SC(=O)NC2=O)cc1)c1nc2ccccc2o1` [Example 32, 5-(4-[4-(N-Methyl-N-(2-benzoxazolyl)amino)butoxy]benzylidene)-2 4-thiazolidinedione] displayed a melting point of 168 °C.

Take `CC(=O)N(CCOc1ccc(CC2SC(=O)NC2=O)cc1)c1ncccn1` (centres unmarked) [Example 25, 5-(4-[2-(N-Acetyl-N-(2-pyrimidinyl)amino)ethoxy]benzyl)-2,4-thiazolidinedione]: the inhibition in vivo at 30 µmol/kg in series [1] (setting [3]) came out at 19%.

The values are drawn from patent US6686475B2, “Compounds” (Beecham Group p.l.c., priority 1988, dated 2004).
